Experimental data reported in patent US7776538B2, “Method for diagnosing methamphetamine dependence” (National University Corporation Nagoya University, priority 2005, dated 2010).

Tests used:
Gene 1 mRNA = Gene 1 mRNA expression in brain tissue by RT-PCR; assay type: in vivo, mice; settings: for Gene 1 expression amount in the nucleus accumbens induced by methamphetamine: methamphetamine 2 mg/kg s.c. six days, R(+)-SCH23390 0.1 mg/kg i.p. or raclopride 2 mg/kg i.p. 30 minutes before
Method: Antisense nucleotide of Gene 1 was continuously infused into the mouse cerebral ventricle by using a mini osmotic pump and methamphetamine was administered to the animals every day.
A mouse was fed with 6% ethanol or water (control) for 12 days, and then was subjected to decapitation. The amount of Gene 1 mRNA in the nucleus accumbens was measured by a RT-PCR method.

[1] = system: mouse (C57black6) nucleus accumbens; assay: cDNA subtraction of nucleus accumbens mRNA after methamphetamine; assay type: in vivo; settings: methamphetamine 10 consecutive days, five genes incl. Gene 1, Gene 2, Gene 3 (Piccolo)
Method: By using RNeasy mini kit (QIAGEN), mRNA was prepared by the following procedure. Mouse brain was taken out and the tissue was divided so as to be 30 mg or less. The brain tissue was dissolved in a solution containing a protein denaturizing agent and centrifuged with a spin column. Ethanol precipitation was repeated. Finally, mRNA was purified with silica gel.
The cDNA subtraction was carried out by using CLONTECH PCR-Select™ cDNA Subtraction Kit (CLONTECH) according to the attached instruction manual.
Methamphetamine-administered mice show hyperactivity, and when methamphetamine is administered to mice every day, the degree of hyperactivity is increased. This can be thought to be a mental disorder accompanying drug dependence (FIG. 1). Then, mRNA was taken out from the mouse (C57black6) nucleus accumbens to which methamphetamine had been administered for 10 consecutive days. Based on this, cDNA subtraction (CLONTECH) was carried out. In mice to which methamphetamine had been administered, a gene in which mRNA expression amount increased by 20 times or more than that of a control group was searched. As a result, five genes satisfy the requirement (FIG. 2). In the genes, three genes except for CREB3 and Odz4 were used for the later research. For convenience of description, each gene is referred to as Gene 1, Gene 2 and Gene 3 (Piccolo).

mice = assay: Locomotor activity test; assay type: in vivo; settings: methamphetamine administered to mice every day (FIG. 1: 2 mg/kg, s.c., six days), hydrochloride
Method: In the test, ICR male mice (Japan SLC, Hamamatsu) that were 8-week old when the test was started. The mice were bred under conditions of light and dark cycle of 12 hours (light up: A.M 8:00), room temperature 23±1° C., and humidity 50±5%. The mice were freely fed with food (CE2: CLEA Japan, Tokyo) and water. Note here that this research program was approved by Animal Research Committee, Nagoya University School of Medicine and carried out in accordance with Guideline of Animal Research of Nagoya University School of Medicine and Principles of Laboratory Animal Care (National Institutes of Health Publication 85-23, 1985).
In the test, an acrylic cage (28 cm in length, 17 cm in width and 13 cm in height) that is the same kind as the home case was used. On the floor, a small amount of breeding chip was placed. […]
On days 1 to 3, mice were placed in a measurement cage for two hours so that the mice became accustomed to the measurement environment. […] Right after the administration, the total locomotor activity for two hours was measured.
Each of the antisense nucleotide of Gene 1 and 2 was infused into the mice cerebral ventricle continuously by using a mini osmotic pump and methamphetamine was administered to the animals every day. The locomotor activity on the first, third and fifth days was measured. […] The locomotor activity was measured for two hours. […]

Genes 1 to 3 mRNA = assay: Expression of Genes 1 to 3 mRNA by RT-PCR / real time RT-PCR after methamphetamine; assay type: in vivo, mice
Excerpt: Furthermore, when the increase of the expression amount was examined by a real time RT-PCR method, the expression amount was increased in the methamphetamine-administered cortex of frontal lobe, nucleus accumbens and striatum, respectively (FIGS. 10 to 12).

[2] = molecular target: T1, human dopamine transporter (Homo sapiens, UniProt Q01959); assay: Fluorescence immunostaining of intracellular movement of dopamine transporter in PC12 cell; settings: before and after methamphetamine was acted
T1 construct: expressed in transfected cells; host or cells: PC12 cells
T1 sequence (Q01959 whole entry): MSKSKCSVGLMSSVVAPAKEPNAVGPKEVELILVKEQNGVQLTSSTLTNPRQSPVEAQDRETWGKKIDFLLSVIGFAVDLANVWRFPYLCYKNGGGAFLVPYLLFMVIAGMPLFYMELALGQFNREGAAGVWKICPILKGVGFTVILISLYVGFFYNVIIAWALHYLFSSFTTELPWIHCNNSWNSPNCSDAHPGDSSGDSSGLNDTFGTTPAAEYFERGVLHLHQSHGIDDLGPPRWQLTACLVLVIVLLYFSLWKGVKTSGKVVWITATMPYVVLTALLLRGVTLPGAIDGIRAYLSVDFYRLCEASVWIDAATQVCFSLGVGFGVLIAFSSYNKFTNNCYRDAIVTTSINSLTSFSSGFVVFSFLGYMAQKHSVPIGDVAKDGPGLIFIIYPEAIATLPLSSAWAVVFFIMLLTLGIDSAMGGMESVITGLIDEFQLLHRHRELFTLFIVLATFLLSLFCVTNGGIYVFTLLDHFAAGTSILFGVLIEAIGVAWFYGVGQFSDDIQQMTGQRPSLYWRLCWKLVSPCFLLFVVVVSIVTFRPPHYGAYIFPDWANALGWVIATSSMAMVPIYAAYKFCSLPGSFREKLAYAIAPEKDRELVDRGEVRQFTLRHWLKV
Method: In the PC12 cell, the human dopamine transporter was forcedly expressed and fluorescence immunostaining of a human dopamine transporter was carried out before and after methamphetamine was acted.

CN1CCc2cc(Cl)c(O)cc2[C@@H](c2ccccc2)C1 [R(+)-SCH23390]
Gene 1 expression amount in the nucleus accumbens induced by methamphetamine (Gene 1 mRNA): significant difference was observed

CCO [ethanol]
Gene 1 mRNA amount in the nucleus accumbens (Gene 1 mRNA; 6% ethanol fed for 12 days vs water): no significant correlation

CN[C@@H](C)Cc1ccccc1.Cl [methamphetamine, methamphetamine hydrochloride]
mRNA expression amount increase over control group [1]: ≥ 20 times
locomotor activity (mice): enhanced
locomotor activity (mice; listed as Methamphetamine): hyperactivity
mRNA of Genes 1 to 3 (RT-PCR) (Genes 1 to 3 mRNA; methamphetamine administered group compared with control group, all primer combinations): increase of mRNA was observed
expression amount of Genes 1 to 3 (real time RT-PCR) (Genes 1 to 3 mRNA; methamphetamine-administered cortex of frontal lobe, nucleus accumbens and striatum): increased
intracellular movement of the human dopamine transporter [2]: intracellular movement of the human dopamine transporter was observed

CN1CCCC1c1cccnc1 (centres unmarked) [nicotine]
Gene 1 mRNA amount in the nucleus accumbens (Gene 1 mRNA; nicotine 0.05-1.0 mg/kg s.c. 12 days): correlation between the administration of nicotine and the expression amount of Gene 1 was observed

c1ccc(C2(N3CCCCC3)CCCCC2)cc1 [phencyclidine]
Gene 1 mRNA amount in the cortex of frontal lobe (Gene 1 mRNA; phencyclidine 10 mg/kg s.c. 14 days): no significant correlation

CCN1CCC[C@H]1CNC(=O)c1c(O)c(Cl)cc(Cl)c1OC [raclopride]
Gene 1 expression amount in the nucleus accumbens induced by methamphetamine (Gene 1 mRNA): significant difference was observed
